Tests used:
Assay type in all cases: biochemical
[1] = molecular target: T1, CDK1:Cyclin-B (Homo sapiens, UniProt P06493); assay: CDK1 Screening Assay; conditions: 10 μM ATP, biotinylated histone-H1 peptide substrate, 33P-γ-ATP FlashPlate; read-out: Kinase IC50 CDK1
T1 construct: purchased New England Biolabs, Beverly, Mass; 6020; host or cells: insect cells
Procedure: (§1) A kinase reaction mixture was prepared containing 50 mM Tris.HCl pH=8, 10 mM MgCl2, 0.1 mM Na3PO4, 1 mM DTT, 10 μM ATP, 0.025 μM biotinylated histone-H1 peptide substrate and 0.2 μCuries per well ^33P-γ-ATP (2000-3000 Ci/mmol). 70 μL of the kinase reaction mixture was dispensed into the well of a streptavidin coated FlashPlate™ (Cat. # SMP103, NEN, Boston, Mass.). Then 1 μL of test compound stock in 100% DMSO was added to the wells resulting in a final concentration of 1% DMSO in the reaction well with a 100 μL final reaction well volume.
(§2) The CDK1:Cyclin-B protein was diluted in 50 mM Tris.HCl pH=8.0, 0.1% BSA at a concentration of 1 ng per μL and 30 μL (30 ng enzyme per test well) was added to each well to initiate the reaction. The reaction was incubated for one hour at 30° C. At the end of the one hour incubation, the reaction was terminated by aspirating the mixture from the plate and washing the wells twice with PBS containing 100 mM EDTA. The histone-H1 biotinylated peptide substrate became immobilized on the Flashplate™ and the incorporation of ^33P-γ-ATP was measured by reading the plate on a scintillation counter. Inhibition of the enzymatic activity of CDK1 was measured by observing a reduced amount of ^33P-γ-ATP incorporated into the immobilized peptide.
The CDK1 kinase used was isolated from insect cells expressing both the human CDK1 catalytic subunit and its positive regulatory subunit cyclin B (New England Biolabs, Beverly, Mass., Cat. # 6020).
(§3) An IC50 listed as >0.1, >1, >10 or >100 means no observed 50% inhibition at the indicated test concentration. […] ND means the compound was not tested in the assay specified.

[2] = molecular target: T2, CDK2:Cyclin A (Homo sapiens, UniProt P24941); assay: CDK2 Screening Assay; conditions: 10 μM ATP, biotinylated histone-H1 peptide substrate, 33P-γ-ATP FlashPlate; read-out: Kinase IC50 CDK2
T2 construct: purchased Upstate Biotech, Lake Placid, N.Y
Procedure: as §1
as §2, with “CDK2:Cyclin A” for “CDK1:Cyclin-B”, “CDK2” for “CDK1”
The CDK2 kinase used was complexed with cyclin A and is commercially available (Upstate Biotech, Lake Placid, N.Y.).
as §3

[3] = molecular target: VEGF-R2 kinase domain (Rattus norvegicus, UniProt O08775); assay: VEGF-R2 Screening Assay; conditions: 10 μM ATP, biotinylated PLC1 peptide substrate, 33P-γ-ATP FlashPlate; read-out: Kinase IC50 VEGFR
VEGF-R2 kinase domain, sequence (O08775 786-1343): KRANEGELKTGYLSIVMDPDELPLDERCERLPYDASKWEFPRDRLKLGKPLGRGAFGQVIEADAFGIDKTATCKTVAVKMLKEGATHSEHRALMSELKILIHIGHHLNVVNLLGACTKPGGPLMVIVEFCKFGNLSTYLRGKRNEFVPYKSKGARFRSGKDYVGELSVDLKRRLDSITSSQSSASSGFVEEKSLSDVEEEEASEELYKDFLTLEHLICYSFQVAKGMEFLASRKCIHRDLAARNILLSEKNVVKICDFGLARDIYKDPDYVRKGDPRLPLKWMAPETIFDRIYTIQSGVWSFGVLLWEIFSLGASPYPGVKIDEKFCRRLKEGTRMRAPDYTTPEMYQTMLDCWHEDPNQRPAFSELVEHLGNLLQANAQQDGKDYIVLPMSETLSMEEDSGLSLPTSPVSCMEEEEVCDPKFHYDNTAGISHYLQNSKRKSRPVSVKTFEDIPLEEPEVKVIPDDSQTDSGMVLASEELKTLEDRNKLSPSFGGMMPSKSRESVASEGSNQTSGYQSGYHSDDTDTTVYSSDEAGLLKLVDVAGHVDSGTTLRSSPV
Procedure: as §1, with “biotinylated” for “biotinylated histone-H1”, “0.8” for “0.2”
The soluble rat tyrosine kinase containing an N-terminal 6×HIS tag was diluted in 50 mM Tris.HCl pH=8.0, 0.1% BSA at a concentration of 5 ng per μL and 30 μL (150 ng enzyme per test well) was added to each well to initiate the reaction. The reaction was incubated for one hour at 30° C. At the end of the one hour incubation, the reaction was terminated by aspirating the reaction mixture from the plate and washing the wells twice with PBS containing 100 mM EDTA. The PLC1 biotinylated peptide substrate became immobilized on the Flashplate™ and the incorporation of ^33P-γ-ATP was measured by reading the plate on a scintillation counter. Inhibition of the enzymatic activity of the VEGF-R was measured by observing a reduced amount of ^33P-γ-ATP incorporated into the immobilized peptide.
The VEGF-R kinase assay was carried out using the CDK kinase assay procedure except that the enzyme was replaced with the VEGF-R2 fusion protein containing a polyhistidine tag at the N-terminus followed by amino acids 786-1343 of the rat VEGF-R2 kinase domain (GenBank Accession #U93306).
as §3

T1 sequence (P06493 whole entry): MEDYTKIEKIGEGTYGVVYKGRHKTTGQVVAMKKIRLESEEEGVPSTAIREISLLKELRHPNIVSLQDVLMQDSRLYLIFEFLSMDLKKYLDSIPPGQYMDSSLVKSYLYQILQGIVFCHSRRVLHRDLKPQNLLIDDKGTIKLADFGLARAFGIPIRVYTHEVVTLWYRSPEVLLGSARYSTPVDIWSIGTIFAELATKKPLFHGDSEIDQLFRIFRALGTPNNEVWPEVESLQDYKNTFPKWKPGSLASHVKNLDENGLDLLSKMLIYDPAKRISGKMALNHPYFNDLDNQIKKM
T1 sequence (P14635 whole entry partner): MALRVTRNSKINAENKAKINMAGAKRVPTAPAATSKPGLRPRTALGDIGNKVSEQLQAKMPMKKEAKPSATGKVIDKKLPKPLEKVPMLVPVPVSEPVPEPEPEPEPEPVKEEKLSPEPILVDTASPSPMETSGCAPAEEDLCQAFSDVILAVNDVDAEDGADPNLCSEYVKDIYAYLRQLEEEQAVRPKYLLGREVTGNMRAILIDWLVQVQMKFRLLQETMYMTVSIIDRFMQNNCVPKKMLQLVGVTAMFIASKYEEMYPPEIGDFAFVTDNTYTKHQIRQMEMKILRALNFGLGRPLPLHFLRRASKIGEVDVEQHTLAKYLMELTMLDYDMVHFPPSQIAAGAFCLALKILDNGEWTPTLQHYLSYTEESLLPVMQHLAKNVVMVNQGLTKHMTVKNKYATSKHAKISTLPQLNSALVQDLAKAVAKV

| SMILES | IC50 [1] | IC50 [2] | IC50 [3] |
| --- | --- | --- | --- |
| O=C(Nc1cccc2sc(Nc3ccccc3)nc12)c1ccccc1 [Cpd 9, N-(2-phenylamino-benzothiazol-4-yl)-benzamide] | > 100 µM | 17.5 µM | > 100 µM |
| COc1ccc(Nc2nc3c(NC(=O)c4c(F)ccc(C)c4F)cccc3s2)cc1 [Cpd 11, 2,6-difluoro-N-[2-(4-methoxy-phenylamino)-benzothiazol-4-yl]-3-methyl-benzamide] | > 100 µM | > 10 µM | > 100 µM |
| Cc1ccc(F)c(C(=O)Nc2cccc3sc(Nc4ccc(S(N)(=O)=O)cc4)nc23)c1F [Cpd 12, 2,6-difluoro-3-methyl-N-[2-(4-sulfamoyl-phenylamino)-benzothiazol-4-yl]-benzamide] | > 100 µM | > 100 µM | > 100 µM |
| Cc1ccc(Nc2nc3c(NC(=O)c4c(F)ccc(C)c4F)cccc3s2)cc1 [Cpd 14, 2,6-difluoro-3-methyl-N-(2-p-tolylamino-benzothiazol-4-yl)-benzamide] | > 100 µM | 3.09 µM | > 100 µM |
| O=C(Nc1cccc2sc(Nc3ccccc3)nc12)c1ccncn1 [Cpd 15, pyrimidine-4-carboxylic acid (2-phenylamino-benzothiazol-4-yl)-amide] | > 100 µM | 89.1 µM | > 100 µM |
| CC(=O)Nc1cccc2sc(Nc3ccccc3)nc12 [Cpd 16, N-(2-phenylamino-benzothiazol-4-yl)-acetamide] | > 100 µM | > 10 µM | > 100 µM |
| NS(=O)(=O)c1ccc(C(=O)Nc2cccc3sc(Nc4ccccc4)nc23)cc1 [Cpd 17, N-(2-phenylamino-benzothiazol-4-yl)-4-sulfamoyl-benzamide] | > 100 µM | 3.05 µM | > 100 µM |
| O=C(Nc1cccc2sc(Nc3ccccc3)nc12)c1ccno1 [Cpd 18, isoxazole-5-carboxylic acid (2-phenylamino-benzothiazol-4-yl)-amide] | > 100 µM | 7.51 µM | > 100 µM |
| O=C(Nc1cccc2sc(Nc3ccccc3)nc12)c1cccc([N+](=O)[O-])c1 [Cpd 19, 3-nitro-N-(2-phenylamino-benzothiazol-4-yl)-benzamide] | > 100 µM | 10.8 µM | > 100 µM |
| Nc1cccc(C(=O)Nc2cccc3sc(Nc4ccccc4)nc23)c1 [Cpd 20, 3-amino-N-(2-phenylamino-benzothiazol-4-yl)-benzamide] | > 100 µM | 5.28 µM | > 100 µM |
| CCC(=O)Nc1cccc2sc(Nc3ccccc3)nc12 [Cpd 26, N-(2-phenylamino-benzothiazol-4-yl)-propionamide] | > 100 µM | 3.67 µM | > 100 µM |
| O=C(Nc1cccc2sc(Nc3ccccc3)nc12)c1ccccn1 [Cpd 27, pyridine-2-carboxylic acid (2-phenylamino-benzothiazol-4-yl)-amide] | > 100 µM | 12 µM | > 100 µM |
| O=C(Nc1cccc2sc(Nc3ccccc3)nc12)c1ccc2c(c1)OCO2 [Cpd 29, benzo[1,3]dioxole-5-carboxylic acid (2-phenylamino-benzothiazol-4-yl)-amide] | > 100 µM | 11.6 µM | > 100 µM |
| O=C(Nc1cccc2sc(Nc3ccccc3)nc12)c1ccccc1Br [Cpd 32, 2-bromo-N-(2-phenylamino-benzothiazol-4-yl)-benzamide] | > 100 µM | 6.27 µM | > 100 µM |
| O=C(Nc1cccc2sc(Nc3ccccc3)nc12)c1cccc(Br)c1 [Cpd 33, 3-bromo-N-(2-phenylamino-benzothiazol-4-yl)-benzamide] | > 100 µM | > 100 µM | > 100 µM |

Further lines, results first:

| IC50 [1] | IC50 [2] | IC50 [3] | SMILES |
| --- | --- | --- | --- |
| > 100 µM | 17.4 µM | > 100 µM | O=C(Nc1ccccc1F)Nc1cccc2sc(Nc3ccccc3)nc12 [Cpd 7, 1-(2-fluoro-phenyl)-3-(2-phenylamino-benzothiazol-4-yl)-urea] |
| 17.5 µM | 3.74 µM | > 100 µM | O=C(Nc1c(Cl)cccc1Cl)Nc1cccc2sc(Nc3ccccc3)nc12 [Cpd 8, 1-(2,6-dichloro-phenyl)-3-(2-phenylamino-benzothiazol-4-yl)-urea] |
| 3.64 µM | 0.65 µM | 5.96 µM | O=C(Nc1cccc2sc(Nc3ccccc3)nc12)c1c(F)cccc1F [Cpd 10, 2,6-difluoro-N-(2-phenylamino-benzothiazol-4-yl)-benzamide] |
| > 10 µM | 3.34 µM | > 100 µM | Cc1cc(C(=O)Nc2cccc3sc(Nc4ccccc4)nc23)n(C)n1 [Cpd 13, 2,5-dimethyl-2H-pyrazole-3-carboxylic acid (2-phenylamino-benzothiazol-4-yl)-amide] |
| 14.8 µM | 1.54 µM | > 100 µM | O=C(Nc1cccc2sc(Nc3ccccc3)nc12)c1ccc(N2CCOCC2)nc1 [Cpd 21, 6-morpholin-4-yl-N-(2-phenylamino-benzothiazol-4-yl)-nicotinamide] |
| 1.31 µM | 0.22 µM | > 100 µM | O=C(Cn1cnnn1)Nc1cccc2sc(Nc3ccccc3)nc12 [Cpd 22, N-(2-phenylamino-benzothiazol-4-yl)-2-tetrazol-1-yl-acetamide] |
| > 10 µM | 2.12 µM | > 100 µM | O=C(Cc1cc(F)cc(F)c1)Nc1cccc2sc(Nc3ccccc3)nc12 [Cpd 23, 2-(3,5-difluoro-phenyl)-N-(2-phenylamino-benzothiazol-4-yl)-acetamide] |
| 53.3 µM | 8.28 µM | > 100 µM | O=C(Nc1cccc2sc(Nc3ccccc3)nc12)c1cncc(Br)c1 [Cpd 24, 5-bromo-N-(2-phenylamino-benzothiazol-4-yl)-nicotinamide] |
| 36.4 µM | 6.22 µM | > 100 µM | CC(=O)N1CCC(C(=O)Nc2cccc3sc(Nc4ccccc4)nc23)CC1 [Cpd 25, 1-acetyl-piperidine-4-carboxylic acid (2-phenylamino-benzothiazol-4-yl)-amide] |
| 12.3 µM | 1.65 µM | > 100 µM | O=C(Nc1cccc2sc(Nc3ccccc3)nc12)c1ccncc1 [Cpd 28, N-(2-phenylamino-benzothiazol-4-yl)-isonicotinamide] |
| 11.3 µM | 1.94 µM | > 100 µM | O=S(=O)(Nc1cccc2sc(Nc3ccccc3)nc12)c1ccccc1 [Cpd 30, N-(2-phenylamino-benzothiazol-4-yl)-benzenesulfonamide] |
| 55.3 µM | 3.03 µM | > 100 µM | O=C(Nc1cccc2sc(Nc3ccccc3)nc12)c1cc(C(F)(F)F)cc(C(F)(F)F)c1 [Cpd 31, N-(2-phenylamino-benzothiazol-4-yl)-3,5-bis-trifluoromethyl-benzamide] |
